Test [1] relates to Candida albicans. In words: Inhibition zone, agar plate diffusion. The conditions noted are these: Ca, mm ± standard deviation, sample at 0.5 mg/mL, read-out: Inhibition zone (IZ). The format is cell-based. The essentials: (§1)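 Compounds in DMSO, with DMSO as negative control, were tested at 0.5 mg/mL in agar wells cut 10 mm wide.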
The test system of another test is Staphylococcus aureus. In words: Inhibition zone, agar plate diffusion. The conditions noted are these: Sa, mm ± standard deviation, sample at 0.5 mg/mL, read-out: Inhibition zone (IZ). In kind it is cell-based. Summed up: as §1
Test [2] deals with Fusarium oxysporum. As to the kind of experiment: Inhibition zone, agar plate diffusion. The format is cell-based. The note with it: Fo, mm ± standard deviation, sample at 0.5 mg/mL, read-out: Inhibition zone (IZ). Summed up:
as §1

A further test concerns Salmonella typhi. In words: Inhibition zone, agar plate diffusion. The note with it: Salmonella enterica, St, mm ± standard deviation, sample at 0.5 mg/mL, read-out: Inhibition zone (IZ). In kind it is cell-based. Summed up:
as §1

The next test has as its system Vero cells (ATCC CCL-81). As to the kind of experiment: Cytotoxicity on normal cells, MTT assay. In kind it is cell-based, African green monkey. The conditions noted are these: MTT, healthy non-cancer cells, read-out: IC50 Vero. The protocol:
3-[4, 5-Dimethyl-2-thiazolyl)-2, 5-diphenyl-2 H-tetrazolium bromide (MTT) protocol is based on the cleavage of the tetrazolium salt by mitochondrial dehydrogenases in viable cells. Cells were dispensed in a 96 well sterile microplate (5 x 10^4 cells/well), and incubated at 37 °C with series of different concentrations, in DMSO, of each tested compound or Doxorubicin ® (positive control) for 48 h in a serum free medium prior to the MTT assay. After incubation, media were carefully removed, 40 µL of MTT (2.5 mg/mL) were added to each well and then incubated for an additional 4 h. The purple formazan dye crystals were solubilized by the addition of 200 µL of DMSO. The absorbance was measured at 590 nm using a SpectraMax® Paradigm® Multi-Mode microplate reader. The relative cell viability was expressed as the mean percentage of viable cells compared to the untreated control cells.
All experiments were conducted in triplicate and repeated in three different days. All the values were represented as mean ± SD. IC 50s were determined by probit analysis using SPSS software program (SPSS
(In general: Tetrazolium dyes change colour on reduction, which living cells bring about.)

Test [3] deals with Candida albicans. In words: MIC/MFC, paper disk diffusion. The format is cell-based. The conditions noted are these: for MIC / MFC: Candida albicans; for MFC: read-out: MFC. The essentials: (§2)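 MIC and MBC were obtained by paper disk diffusion, bacteria grown on nutrient agar and fungi/yeast on Sabouraud agar. MIC is the lowest concentration inhibiting growth.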
For orientation: A growth-free zone around the sample is the usual read-out of agar diffusion tests.

Test [4] has as its system Fusarium oxysporum. In words: MIC/MFC, paper disk diffusion. In kind it is cell-based. The note with it: F. oxysporum; for MFC / MIC: Fusarium oxysporum; for MFC: read-out: MFC; for MIC: read-out: MIC. The essentials:
as §2

The next test deals with DHFR E. coli (Escherichia coli, UniProt P0ABQ4). In words: Dihydrofolate reductase enzyme assay. The format is biochemical. The conditions noted are these: for Fold potential relative to Trimethoprim (IC50): DHFR.
Sequence of DHFR E. coli (P0ABQ4 whole entry, the tested form may be a part): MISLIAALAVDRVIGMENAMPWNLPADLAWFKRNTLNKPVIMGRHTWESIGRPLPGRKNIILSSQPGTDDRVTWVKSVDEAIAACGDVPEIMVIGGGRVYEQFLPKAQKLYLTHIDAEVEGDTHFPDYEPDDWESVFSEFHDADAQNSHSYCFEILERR
The subject of test [5] is P. aeruginosa ATCC BAA-2111. As to the kind of experiment: Inhibition zone against MDRB, agar plate diffusion. In kind it is cell-based.
A further test has as its system E. coli ATCC BAA-196. As to the kind of experiment: Inhibition zone against MDRB, agar plate diffusion. In kind it is cell-based.

The values below come from PMC7321065, “Discovery of New Schiff Bases Tethered Pyrazole Moiety: Design, Synthesis, Biological Evaluation, and Molecular Docking Study as Dual Targeting DHFR/DNA Gyrase Inhibitors with Immunomodulatory Activity” (Molecules, 2020).

≈ marks a conversion by molar mass, not a printed value. Like-named read-outs stand apart in the source and are kept apart here.

With `COc1ccc(Nc2n[nH]c(N=Cc3ccc(N4CCCCC4)cc3)c2C(N)=O)cc1` [8a, 3-(p-Methoxyphenylamino)-5-(4-(piperidin-1-yl)benzylideneamino)-1H-pyrazole-4-carboxamide], the zone of inhibition at 500 µg/mL with Candida albicans [1] stood at 24 ± 0.3 mm; in the test on Staphylococcus aureus, 26 ± 0.14 mm; in the test on Fusarium oxysporum [2], 20 ± 0.82 mm; with Salmonella typhi it was 23 ± 0.11 mm. For the same compound, the IC50 (in general, the point on the concentration scale where inhibition reaches its midpoint) with Vero cells (ATCC CCL-81) (Chlorocebus sabaeus, Vero) is greater than 120 µM; in the test on Vero cells (ATCC CCL-81), 120.5 ± 0.34 µM; against DHFR E. coli it was 3.98 ± 0.61 µM. In addition, the “Fold activity in comparison with Amphotericin B (MIC)” value in the test with Candida albicans [3] (C. albicans) and with Fusarium oxysporum [4] was 2 fold each time. Moreover, the MIC (in general, the lowest concentration that inhibits growth of the organism) against Candida albicans [3] came out at 7.81 µg/mL (≈ 18.7 µM); in the test on Fusarium oxysporum [4], 15.6 µg/mL (≈ 37.3 µM). Moreover, the MFC in the test with Candida albicans [3] (C. albicans) turned out to be 15.6 µg/mL (≈ 37.3 µM); in the test with Fusarium oxysporum [4] it was 27.8 µg/mL (≈ 66.4 µM). For the same compound, the “Fold potential relative to Trimethoprim (IC50)” value at DHFR E. coli stood at 1.3 fold. Besides, the “Mean Diameter of Inhibition Zone against MDRB” value is listed as 27 ± 0.54 mm in test [5] and 25 ± 0.46 mm in the test on E. coli ATCC BAA-196.

For `COc1ccc(Nc2n[nH]c(N=Cc3cc(OC)c(OC)c(OC)c3)c2C(=O)Nc2ccccc2)cc1` [9b, 3-(p-Methoxyphenylamino)-N-phenyl-5-(3,4,5-trimethoxybenzylideneamino)-1H-pyrazole-4-carboxamide], the zone of inhibition at 500 µg/mL with Candida albicans [1] came out at 19 ± 0.25 mm; in the test with Staphylococcus aureus, 21 ± 0.3 mm; in the test with Fusarium oxysporum [2], 17 ± 0.5 mm; in the test with Salmonella typhi, 23 ± 0.4 mm. For the same compound, the half-inhibitory concentration (IC50) in the test with Vero cells (ATCC CCL-81) (Chlorocebus sabaeus, Vero) is greater than 120 µM; in the test on Vero cells (ATCC CCL-81), 195.9 ± 0.57 µM; on DHFR E. coli, 6.48 ± 0.33 µM. Besides, the “Fold activity in comparison with Amphotericin B (MIC)” value in the test with Candida albicans [3] (C. albicans) and in the test with Fusarium oxysporum [4] was 2 fold each time. Besides, the MFC in the test with Candida albicans [3] (C. albicans) came out at 12.5 µg/mL (≈ 24.9 µM); in the test with Fusarium oxysporum [4], 26.6 µg/mL (≈ 52.9 µM). Besides, the MIC was found to be 7.81 µg/mL (≈ 15.6 µM) with Candida albicans [3] (C. albicans, read-out: MIC) and 15.6 µg/mL (≈ 31.1 µM) in the test with Fusarium oxysporum [4]. The “Fold potential relative to Trimethoprim (IC50)” value on DHFR E. coli came to 0.80 fold. Further, the “Mean Diameter of Inhibition Zone against MDRB” value in test [5] was found to be 24 ± 0.88 mm; with E. coli ATCC BAA-196, 22 ± 0.2 mm.
